Results from patent publication US20040242459A1 (priority 2001, published 2004).
Marks after values point to notes of the source that are not given here.

What was measured:
[1] = molecular target: T1, recombinant human PPARδ (GST-PPARδ) (Homo sapiens, UniProt Q03181); assay: Scintillation Proximity Assay, displacement of [3H2]Compound B from PPARδ; type: binding; conditions: SPA, radioligand
T1 construct: The full length human cDNAs for PPARδ and PPARα were subcloned into the pGEX-KT expression vector; made in house; host or cells: E. coli
T1 sequence (Q03181 1-441): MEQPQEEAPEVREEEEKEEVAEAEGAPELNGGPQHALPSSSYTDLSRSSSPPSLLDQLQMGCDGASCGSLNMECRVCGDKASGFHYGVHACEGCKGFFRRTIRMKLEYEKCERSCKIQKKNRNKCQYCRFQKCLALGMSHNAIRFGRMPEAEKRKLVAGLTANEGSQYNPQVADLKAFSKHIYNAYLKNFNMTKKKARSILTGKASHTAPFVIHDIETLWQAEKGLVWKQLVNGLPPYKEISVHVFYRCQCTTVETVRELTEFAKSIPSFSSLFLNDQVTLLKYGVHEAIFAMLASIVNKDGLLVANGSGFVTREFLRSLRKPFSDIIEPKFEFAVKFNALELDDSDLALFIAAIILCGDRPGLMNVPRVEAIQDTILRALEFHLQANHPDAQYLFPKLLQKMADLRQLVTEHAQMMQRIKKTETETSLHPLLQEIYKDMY
Source text: As an approach to identifying human PPAR agonists, a Scintillation Proximity Assay was used to characterize PPAR-γ, PPAR-δ, and PPAR-α ligands.
Human PPARγ2, human PPARδ and human PPARα were expressed as GST-fusion proteins in E. coli. The full length human cDNA for PPARγ 2 was subcloned into the pGEX-2 T expression vector (Amersham Pharmacia Biotech, Inc.). The full length human cDNAs for PPARδ and PPARα were subcloned into the pGEX-KT expression vector (Amersham Pharmacia Biotech, Inc.). E. coli containing the respective plasmids were propagated, induced, and harvested by centrifugation. The resuspended pellet was broken in a French press and debris removed by centrifugation. Recombinant human PPAR receptors were purified by affinity chromatography on glutathione sepharose. After application to the column, and one wash, receptor was eluted with glutathione. Glycerol (10%) was added to stabilize the receptor and aliquots were stored at −80° C.
After incubation for ˜16 h at 15° C. with shaking, the assay plates were counted in a Packard Topcount with quench correction.

[2] = tested on: adjuvant-induced arthritis in female Lewis rats; conditions: for Change in Secondary Foot Volume Day 14-0 / Secondary Foot Volume % Inhibition Compared to Vehicle Day 21-0 / Change in Secondary Foot Volume Day 21-0 / Secondary Foot Volume % Inhibition Compared to Vehicle Day 14-0: contralateral paw; for Change in Secondary Foot Volume Day 14-0 / Change in Primary Foot Volume Day 4-0 / change in body weight Day 14-0 / change in body weight Day 21-0: p.o. q.d.; for Change in Secondary Foot Volume Day 14-0 / Change in Primary Foot Volume Day 4-0 / change in body weight Day 14-0: Compounds 1, 2, 4, 6 30 mg/kg/day; for Change in Secondary Foot Volume Day 14-0 / Change in Primary Foot Volume Day 4-0: Compound 3 50, Compound 5 100, indomethacin 2; for Change in Secondary Foot Volume Day 14-0 / Change in Primary Foot Volume Day 4-0 / Change in Primary Foot Volume Day 14-0 / change in body weight Day 14-0 / Spleen / Thymus / Change in Primary Foot Volume Day 21-0 / radiographic total scores on day 21, Primary (injected) paw / radiographic total scores on day 21, Secondary (contralateral) Paw / change in body weight Day 21-0 / Thymus (mg): mean ± SD; for Change in Primary Foot Volume Day 14-0 / Secondary Foot Volume % Inhibition Compared to Vehicle Day 14-0 / Primary Foot Volume % Inhibition Compared to Vehicle Day 4-0 / Primary Foot Volume % Inhibition Compared to Vehicle Day 14-0: same doses p.o. q.d.; for change in body weight Day 14-0: Compound 3 50, Compound 5 100, indomethacin 2 mg/kg/day; for prevention of swelling of primary or secondary paws: up to day 14, rats then euthanized; for Spleen / Thymus / Thymus (mg): weight at necropsy, day of euthanasia 21 (Compound 1, indomethacin) or 15 (Compounds 2-6); for Change in Secondary Foot Volume Day 21-0: mean, SD wrapped to next line; for radiographic total scores on day 21, Primary (injected) paw / radiographic total scores on day 21, Secondary (contralateral) Paw: maximum score per foot 26; for change in body weight Day 21-0: indomethacin 2 mg/kg/day; for body weight gain compared with vehicle-treated animals: prophylactic, Compound 1 30 mg/kg q.d.
Procedure: Nine groups of 10 rats each were injected with an emulsion containing 0.5 mg of Mycobacterium butyricum in 0.1 ml of light mineral oil, and a negative control group of 10 rats was not injected with adjuvant. Body weights, primary (injected) and contralateral (non-injected) paw volumes (determined by mercury displacement plethysmography) and lateral radiographs (obtained under Ketamine and Xylazine anesthesia) were determined before (day-1) and at various time points including 21 days following adjuvant injection. The rats were anesthetized with an intramuscular injection of 0.03-0.1 ml of a combination of Ketamine (87 mg/kg) and Xylazine (13 mg/kg) for radiographs and injection of adjuvant. Lateral to medial radiographs were made of both hind paws on days 0 and 21 for using the Faxitron (45 kVp, 30 seconds or 45 kVp, 1 second) and Kodak X-OMAT TL film, and were developed in an automatic processor. […] Specific criteria were used to establish the numerical grade of severity for each radiographic change. The maximum possible score per foot was 26. Compounds or vehicle were administered prophylactically beginning post injection of adjuvant and continuing for 21 days. The Compounds were prepared weekly, refrigerated in the dark until used, and vortex mixed immediately prior to administration. […] The liver, thymus and spleens of all rats were removed and weighed and both hind paws were removed and radiographed.
Two-factor (‘treatment’ and ‘time’) analysis of variance with repeated measures on ‘time’ were applied to the percent changes for body weight and foot volumes and to the rank-transformed radiographic total scores. A post hoc Dunnett's test was conducted to compare the effect of treatments to vehicle. A one-way analysis of variance was applied to the thymic and spleen weights followed by the Dunnett's test to compare the effect of treatments to vehicle.
Compounds or vehicle (0.5% Methocel in sterile water) were administered by oral gavage once daily for 21 days following induction of arthritis in female Lewis rats via the sub plantar injection of 0.1 ml of light mineral oil containing 0.5 mg of Mycobacterium butyricum. Control animals were not injected with adjuvant. Body weights were measured 1 day prior to (i.e. day 0) and at 14 and 21 days post induction of arthritis. The data in Table 1 represent the mean increase or decrease in body weight ±1 standard deviation for groups of 9 to 10 animals.
Compounds or vehicle (0.5% Methocel in sterile water) were administered by oral gavage once daily for 21 days following induction of arthritis in female Lewis rats via the sub plantar injection of 0.1 ml of light mineral oil containing 0.5 mg of Mycobacterium butyricum. Control animals were not injected with adjuvant.
Injected foot volumes were measured by mercury displacement plethysmography prior to induction of arthritis, and on days 4, 14 and 21 post induction of arthritis. The data represent the mean increase in foot volume ±1 standard deviation for groups of 9 to 10 animals. The extent of paw swelling in compound-treated animals was compared to the mean of that in the vehicle-treated group, and percentage inhibition was calculated for each dose level of compound.
Contralateral foot volumes were measured by mercury displacement plethysmography prior to, and at days 14 and 21 post induction of arthritis. The data represent the mean increase in foot volume ±1 standard deviation for groups of 9 to 10 animals. The extent of paw swelling in compound-treated animals was compared to the mean of that in the vehicle-treated group, and percentage inhibition was calculated for each dose level of compound.
[…] Data represent the mean weights of organs in mg ±1 standard deviation for groups of 9 to 10 animals.
Total radiographic scores were derived from examination of lateral radiographs obtained prior to, and on day 21 post induction of arthritis.

[3] = tested on: PPAR-α, PPAR-γ and PPAR-δ; assay: Classification of ligands according to their PPAR activity (Table A); design: species or system human; conditions: classification based on IC50 and EC50 data of Table B
[4] = Compound 1 30 mg/kg/day, indomethacin 2 mg/kg/day p.o. q.d.
[5] = injected paw, Compound 1 30 mg/kg/day, indomethacin 2 mg/kg/day p.o. q.d.
[6] = day 21, 30 mg/kg q.d. prophylactic

| SMILES | Change in Secondary Foot Volume Day 14-0 [2] | Change in Primary Foot Volume Day 4-0 ([2]; injected paw) | Change in Primary Foot Volume Day 14-0 ([2]; injected paw) | change in body weight Day 14-0 [2] | prevention of swelling of primary or secondary paws [2] | Spleen [2] [mg] | Thymus [2] [mg] | Secondary Foot Volume % Inhibition Compared to Vehicle Day 21-0 [2, 4] [%] | Change in Secondary Foot Volume Day 21-0 [2, 4] [µL] | Secondary Foot Volume % Inhibition Compared to Vehicle Day 14-0 [2] [%] | radiographic total scores of contralateral paws compared with vehicle ([2]; day 21) | Change in Primary Foot Volume Day 21-0 [2, 5] | Primary Foot Volume % Inhibition Compared to Vehicle Day 4-0 ([2]; injected paw) [%] | Primary Foot Volume % Inhibition Compared to Vehicle Day 14-0 ([2]; injected paw) [%] | radiographic total scores on day 21, Primary (injected) paw [2, 4] | radiographic total scores on day 21, Secondary (contralateral) Paw [2, 4] | change in body weight Day 21-0 ([2]; Compound 1 30 mg/kg/day) | body weight gain compared with vehicle-treated animals [2] | degree of thymic involution compared with vehicle ([2]; rat, in vivo) | Thymus (mg) [2] | further results |
| --- | --- | --- | --- | --- | --- | --- | --- | --- | --- | --- | --- | --- | --- | --- | --- | --- | --- | --- | --- | --- | --- |
| CCCc1c(OCCCSc2ccc(CC(=O)O)cc2Cl)ccc2c(C(F)(F)F)noc12 [Compound B, 3-chloro-4-(3-(7-propyl-3-trifluoromethyl-6-benz-[4,5]-isoxazoloxy)propylthio)phenylacetic acid, reference compound] |  |  |  |  |  |  |  |  |  |  |  |  |  |  |  |  |  |  |  |  | Kd [1]: ~1 nM |
| CC(C)OC(=O)C(C)(C)Oc1ccc(C(=O)c2ccc(Cl)cc2)cc1 [Compound 5, Fenofibrate, reference compound] | 824 ± 186 µL | 1421 ± 212^+ μL | 1945 ± 415 µL | −7.6 ± 5.3 grams | failed to prevent swelling of either the primary or secondary paws | 644.4 ± 159.2 | 155.3 ± 27.8 |  |  |  |  |  |  |  |  |  |  |  |  |  |  |
| COc1ccc2c(c1)c(CC(=O)O)c(C)n2C(=O)c1ccc(Cl)cc1 [Indomethacin, indomethacin, reference compound] | 275 ± 138^++ μL | 798 ± 164^++ μL | 799 ± 159*^++ μL | 8.6 ± 7.7**^++ grams |  | 738.0 ± 124.0 |  | 79.2 | 201.0 | 62.0 | significantly less | 499 ± 135^++ μL | 59.2 | 65.7 | 4.3 ± 1.3^++ | 3.3 ± 1.3**^++ | 11.6 ± 8.0**^++ grams | gained more weight than did vehicle-treated animals | less severe | 426.0 ± 69.0^++ mg | radiographic total scores of primary paws compared with vehicle ([2]; day 21): significantly less; Primary Foot Volume % Inhibition Compared to Vehicle Day 21-0 [2, 5]: 79.2%; Liver ([2]; rat, in vivo): 866.0 ± 86.0 mg |
| Cc1cccc(Nc2cc(Cl)nc(SCC(=O)O)n2)c1C [Compound 4, WY-14643, reference compound] | 704 ± 421 µL | 2133 ± 266 µL | 2585 ± 733 µL | −15.2 ± 6.8 grams | failed to prevent swelling of either the primary or secondary paws | 665.1 ± 69.8 | 146.8 ± 33.4 |  |  | 22.1 |  |  | 0 |  |  |  |  |  |  |  | PPAR Activity [3]: Alpha Agonist |
| CN(CCOc1ccc(CC2SC(=O)NC2=O)cc1)c1ccccn1 (stereo not drawn) [Compound 6, Rosiglitazone, reference compound] |  |  |  | 0.4 ± 6.4**^++ grams | failed to prevent swelling of either the primary or secondary paws | 634.5 ± 91.4 | 187.8 ± 50.4 |  |  |  |  |  |  |  |  |  |  |  |  |  | PPAR Activity [3]: Gamma Agonist |
| Cc1cc(SCc2sc(-c3ccc(C(F)(F)F)cc3)nc2C)ccc1OCC(=O)O.[Na+] [Compound 1] | 38 ± 161^++ μL | 1510 ± 523^+ μL | 1530 ± 659**^++ μL | 1.9 ± 6.6**^++ grams |  | 601.0 ± 52.8 |  | 77.8 | 246.0 | 92.4 | significantly less | 2612 ± 909 µL | 23.1 | 30.0 | 13.0 ± 7.2 | 1.8 ± 3.3^++ | 2.9 ± 7.4**^++ grams | gained more weight than did vehicle-treated animals | less severe | 275.0 ± 50.4**^++ mg | swelling of the contralateral (secondary) paw [2, 6]: inhibited the day 21 swelling of the contralateral (secondary) paw; swelling of the primary (injected) paw [2, 6]: did not affect the swelling of the primary (injected) paw; Liver (mg) ([2]; rat, in vivo): 1209.0 ± 129.0**^++ mg; liver weight compared with vehicle ([2]; rat, in vivo): significantly heavier |
